From patent US20070104644A1, “Inhibitor imaging agents” (priority 2003, published 2007)
Each block holds one compound with its values, some of them ahead of it.

Assays:
[1] = target: MMP-12 (Homo sapiens, UniProt P39900); assay: MMP-12 colorimetric assay kit (Biomol AK-402); format: biochemical
Procedure: (§1) Compounds were screened using the following commercially available Biomol assay kits: • MMP-1 colorimetric assay kit—Catalogue number AK-404, • MMP-2 colorimetric assay kit—Catalogue number AK-408, • MMP-8 calorimetric assay kit—Catalogue number AK-414, • MMP-9 calorimetric assay kit—Catalogue number AK-410, • MMP-12 colorimetric assay kit—Catalogue number AK-402, Which are available from Affiniti Research Products Ltd. (Palatine House, Matford Court, Exeter, EX2 8NL, UK).
(§2) Inhibitors were provided in powdered form, and stored at 4° C. For each inhibitor a 1 mM stock solution in DMSO was prepared, dispensed into 20 μl aliquots and these aliquots stored at −20° C. The stock solution was diluted to give 8 inhibitor concentrations (recommended: 50 μM, 5 μM, 500 nM, 50 nM, 5 nM, 500 pM, 50 pM and 5 pM). Dilutions were made in the kit assay buffer. A five-fold dilution of the inhibitor stocks is made on addition to the assay wells, therefore final concentration range was from 10 μM to 1 pM.
(§3) Details are provided with the commercial kit, but can be summarised as follows: • Prepare test compound dilutions as above, • Add assay buffer to plate, • Add test compounds to plate • Prepare standard kit inhibitor NNGH (see kit for dilution factor) • Add NNGH to control inhibitor wells • Prepare MMP enzyme (see kit for dilution factor) • Add MMP to plate • Incubate plate at 37° C. for ˜15 min • Prepare thiopeptolide substrate (see kit for dilution factor) • Add substrate to plate • Count every 2 min for 1 hr, 37° C., 414 nm on a Labsystems iEMS plate reader (for MMP-1 count every 30 seconds for 20 minutes).

[2] = target: MMP-8 (Homo sapiens, UniProt P22894); assay: MMP-8 colorimetric assay kit (Biomol AK-414); format: biochemical
Chain of MMP-8 (P22894 101-467): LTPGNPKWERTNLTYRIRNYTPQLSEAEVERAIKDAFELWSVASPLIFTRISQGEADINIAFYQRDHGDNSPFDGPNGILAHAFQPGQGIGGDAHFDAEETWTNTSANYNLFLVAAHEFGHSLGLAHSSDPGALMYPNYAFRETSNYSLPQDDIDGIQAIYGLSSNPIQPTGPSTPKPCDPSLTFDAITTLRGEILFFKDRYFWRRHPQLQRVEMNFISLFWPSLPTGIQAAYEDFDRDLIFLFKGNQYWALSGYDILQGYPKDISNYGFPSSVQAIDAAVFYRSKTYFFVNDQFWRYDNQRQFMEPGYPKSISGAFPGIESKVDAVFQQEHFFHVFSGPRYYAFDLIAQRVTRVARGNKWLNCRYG
Procedure: as §1, §2, §3

[3] = target: T1, MMP-2 (Homo sapiens, UniProt P08253); assay: MMP-2 colorimetric assay kit (Biomol AK-408); format: biochemical
T1 sequence (P08253 110-660): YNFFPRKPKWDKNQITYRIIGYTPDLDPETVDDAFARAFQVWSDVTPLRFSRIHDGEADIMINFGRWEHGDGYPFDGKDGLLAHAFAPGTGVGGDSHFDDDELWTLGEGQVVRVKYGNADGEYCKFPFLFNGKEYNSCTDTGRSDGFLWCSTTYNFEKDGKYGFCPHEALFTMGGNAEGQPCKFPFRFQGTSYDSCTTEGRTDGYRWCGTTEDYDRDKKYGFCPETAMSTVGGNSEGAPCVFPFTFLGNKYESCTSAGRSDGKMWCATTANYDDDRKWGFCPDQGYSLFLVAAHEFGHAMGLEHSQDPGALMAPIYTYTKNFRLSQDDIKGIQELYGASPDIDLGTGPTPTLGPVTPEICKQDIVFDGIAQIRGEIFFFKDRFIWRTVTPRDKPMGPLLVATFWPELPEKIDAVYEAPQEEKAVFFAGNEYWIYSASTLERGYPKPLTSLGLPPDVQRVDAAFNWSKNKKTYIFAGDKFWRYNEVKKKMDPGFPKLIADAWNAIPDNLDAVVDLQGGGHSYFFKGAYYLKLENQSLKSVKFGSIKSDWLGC
Procedure: as §1, §2, §3

[4] = target: T2, MMP-1 (Homo sapiens, UniProt P03956); assay: MMP-1 colorimetric assay kit (Biomol AK-404); format: biochemical
T2 sequence (P03956 100-469): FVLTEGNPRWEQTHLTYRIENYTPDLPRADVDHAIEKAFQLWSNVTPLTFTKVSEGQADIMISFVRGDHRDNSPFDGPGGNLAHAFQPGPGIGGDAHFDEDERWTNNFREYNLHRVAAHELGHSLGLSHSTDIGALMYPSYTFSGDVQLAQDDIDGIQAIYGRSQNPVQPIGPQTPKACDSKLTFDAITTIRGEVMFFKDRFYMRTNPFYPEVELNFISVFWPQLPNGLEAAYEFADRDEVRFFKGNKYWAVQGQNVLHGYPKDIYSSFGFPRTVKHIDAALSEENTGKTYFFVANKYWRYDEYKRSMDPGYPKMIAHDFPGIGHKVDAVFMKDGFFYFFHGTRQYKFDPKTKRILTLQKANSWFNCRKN
Procedure: as §1, §2, §3

[5] = target: MMP-9 (Homo sapiens, UniProt P14780); assay: MMP-9 colorimetric assay kit (Biomol AK-410); format: biochemical
Chain of MMP-9 (P14780 94-707): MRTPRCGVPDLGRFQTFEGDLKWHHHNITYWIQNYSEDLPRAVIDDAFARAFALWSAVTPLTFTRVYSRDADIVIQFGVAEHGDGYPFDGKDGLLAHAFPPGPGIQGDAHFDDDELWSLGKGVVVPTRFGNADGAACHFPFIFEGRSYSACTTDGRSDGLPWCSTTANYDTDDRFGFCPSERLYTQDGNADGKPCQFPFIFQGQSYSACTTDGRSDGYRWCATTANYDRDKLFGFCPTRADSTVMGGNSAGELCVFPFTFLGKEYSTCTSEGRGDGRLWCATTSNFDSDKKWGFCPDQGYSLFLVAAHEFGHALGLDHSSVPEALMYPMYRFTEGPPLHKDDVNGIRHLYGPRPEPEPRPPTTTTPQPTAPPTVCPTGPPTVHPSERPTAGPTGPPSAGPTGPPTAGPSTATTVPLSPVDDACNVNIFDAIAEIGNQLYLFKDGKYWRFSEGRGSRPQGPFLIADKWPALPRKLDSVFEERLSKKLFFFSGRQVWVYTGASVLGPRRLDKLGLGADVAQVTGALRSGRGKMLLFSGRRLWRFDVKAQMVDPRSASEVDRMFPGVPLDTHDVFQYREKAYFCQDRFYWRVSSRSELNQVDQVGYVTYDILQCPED
Procedure: as §1, §2, §3

[6] = In vitro rat plasma stability; format: in vitro ADME
Procedure: Plasma and in vivo stability studies were performed with Compound 24A to determine the stability and metabolism of the compound.

[7] = system: Lewis lung carcinoma (LLC) tumour; assay: Biodistribution in LLC tumour model in vivo; design: species or system C57BL/6 mice
Procedure: 1×10^6 Lewis lung carcinoma (LLC) cells are injected subcutaneously into right inner thigh of C57BL/6 mice. Tumours were allowed to grow for 15 days prior to biodistribution being carried out.
Biodistribution studies were performed in the LLC tumour model.
Biodistribution was performed in the LLC tumour model of Example 23 with Compounds 46B and 48B.

[8] = In vivo stability and metabolism in the rat
Excerpt: Only plasma and bile samples could be analysed due to insufficient radioactivity within the urine.

[9] = system: ApoE −/− mice, carotid artery; assay: Biodistribution in ApoE ligation model of atherosclerosis (ligated and sham); format: in vivo
Excerpt: ApoE −/− mice are transgenic knock-out mice, which lack the ApoE gene, and are therefore unable to regulate their plasma cholesterol levels. As a consequence ApoE mice develop atherosclerotic lesions, a process which is accelerated with feeding of high fat diet. Further acceleration of lesion development can be achieved by ligating the carotid artery, resulting in advanced lesion formation within 4 weeks of surgery and high fat diet feeding.
Two controls have been used for these experiments: (1) ApoE sham animals in which the mice undergo the same surgical intervention but the sture is only passed beneath the carotid and then removed and, (2) C57BL/6 ligtaed animals which undergo the same surgical ligation and high fat feeding as the ApoE ligated mice. Literature reports have stated that these animals do have some level of tissue remodelling, but with lower active MMP levels [Ivan et al, Circulation, 105, 2686-2691 (2002)].

[10] = system: MDA-MB-231 tumour (human breast carcinoma xenograft); assay: Imaging in MDA-MB-231 tumour model in vivo
Procedure: Imaging was performed with Compound 24A in the MDA-MB-231 tumour model (a human breast carcinoma xenograft model). […] 1999 May;17(3):231-8; • Lee et al, Eur. J Cancer, 2001; 37:106-113. • Weber et al Int J Oncol.

[11] = ApoE Ligated, 5 min post injection
[12] = ApoE Ligated, 60 min post injection
[13] = ApoE Sham, 60 min post injection

Chain of MMP-12 (P39900 106-470): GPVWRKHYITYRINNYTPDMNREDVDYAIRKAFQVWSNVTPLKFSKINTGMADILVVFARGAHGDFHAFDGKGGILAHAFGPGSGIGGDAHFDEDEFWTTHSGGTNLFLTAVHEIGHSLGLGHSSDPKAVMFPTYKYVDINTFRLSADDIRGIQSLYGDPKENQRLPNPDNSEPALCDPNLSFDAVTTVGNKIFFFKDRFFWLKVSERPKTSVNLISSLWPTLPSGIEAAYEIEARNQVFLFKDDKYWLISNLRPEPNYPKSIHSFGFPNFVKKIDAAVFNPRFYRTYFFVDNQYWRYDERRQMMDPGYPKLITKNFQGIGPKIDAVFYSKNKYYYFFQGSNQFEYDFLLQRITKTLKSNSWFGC

Ki [1]: 0.89 nM
Ki [2]: 2.17 nM
Ki [3]: 0.62 nM
Ki [4]: 330 nM
Ki [5]: 0.37 nM
SMILES: NC(=O)[C@H](Cc1ccc(O)c(I)c1)NC(=O)CCOCCOCCOCCOCCOCCOCCOCCOCCOCCOCCOCCNC(=O)CCOCCOCCOCCOCCOCCOCCOCCOCCOCCOCCOCCNC(=O)CCN(C1(C(=O)NO)CCCC1)S(=O)(=O)c1ccc(Oc2ccc(F)cc2)cc1 [Compound 32]

Ki [1]: 0.05 nM
Ki [3]: 1.25 nM
Ki [5]: 0.99 nM
SMILES: NC(=O)[C@H](Cc1ccc(O)c(I)c1)NC(=O)COCC(=O)NCCOCCOCCOCCNC(=O)[C@H](CCC(=O)O)NC(=O)[C@H](CCC(=O)O)NC(=O)[C@H](CCC(=O)O)NC(=O)[C@H](CCC(=O)O)NC(=O)[C@H](CCC(=O)O)NC(=O)CCN(C1(C(=O)NO)CCCC1)S(=O)(=O)c1ccc(Oc2ccc(F)cc2)cc1 [Compound 38]

More lines, now with the values behind:

SMILES: O=C(CCN(C1(C(=O)NO)CCCC1)S(=O)(=O)c1ccc(Oc2ccc(F)cc2)cc1)NCCc1ccc(O)c(I)c1 [Compound 24]
Ki [1]: 0.67 nM
Ki [2]: 3.93 nM
Ki [3]: 0.14 nM
Ki [4]: 4950 nM
Ki [5]: 0.58 nM

SMILES: NC(=O)[C@H](CCCCNC(=O)CON=Cc1ccc(F)cc1)NC(=O)CCN(C1(C(=O)NO)CCCC1)S(=O)(=O)c1ccc(Oc2ccc(F)cc2)cc1 [Compound 46]
Ki [1]: 0.17 nM
Ki [2]: 0.52 nM
Ki [3]: 1.96 nM
Ki [4]: 172 nM
Ki [5]: 0.44 nM

SMILES: O=C(CCN(C1(C(=O)NO)CCCC1)S(=O)(=O)c1ccc(Oc2ccc(F)cc2)cc1)NCCc1ccc(O)c([123I])c1 [Compound 24A]
In vitro rat plasma stability ([6]; 2 hours, 37° C.): good stability
RCP of parent compound ([6]; start of incubation at 37° C.): 93%
RCP of parent compound ([6]; through 2 hours incubation at 37° C.): 80%
Background tissue uptake [7]: low background tissue uptake
Blood clearance / retention [7]: cleared very rapidly from the blood
Route of excretion [7]: primarily excreted through the hepatobiliary system (HBS)
Tumour uptake and retention [7]: Some retention was seen within tumour tissue
% ID Urinary (urinary excretion), mean ([7]; 5 min post injection): 7.17 % ID
% ID/g Tumour, mean ([7]; 5 min post injection): 0.6 % ID/g
Tumour/Blood, mean ([7]; 5 min post injection): 0.32
Tumour/Heart, mean ([7]; 5 min post injection): 0.27
Tumour/Lung, mean ([7]; 5 min post injection): 0.22
Tumour/Muscle, mean ([7]; 5 min post injection): 1.19
% ID Urinary (urinary excretion), mean ([7]; 30 min post injection): 6.89 % ID
% ID/g Tumour, mean ([7]; 30 min post injection): 0.56 % ID/g
Tumour/Blood, mean ([7]; 30 min post injection): 0.59
Tumour/Heart, mean ([7]; 30 min post injection): 0.57
Tumour/Lung, mean ([7]; 30 min post injection): 0.39
Tumour/Muscle, mean ([7]; 30 min post injection): 1.6
% ID Urinary (urinary excretion), mean ([7]; 60 min post injection): 5.5 % ID
% ID/g Tumour, mean ([7]; 60 min post injection): 0.48 % ID/g
Tumour/Blood, mean ([7]; 60 min post injection): 0.46
Tumour/Heart, mean ([7]; 60 min post injection): 0.68
Tumour/Lung, mean ([7]; 60 min post injection): 0.37
Tumour/Muscle, mean ([7]; 60 min post injection): 1.41
% ID Urinary (urinary excretion), mean ([7]; 120 min post injection): 7.22 % ID
% ID/g Tumour, mean ([7]; 120 min post injection): 0.6 % ID/g
Tumour/Blood, mean ([7]; 120 min post injection): 0.66
Tumour/Heart, mean ([7]; 120 min post injection): 1.23
Tumour/Lung, mean ([7]; 120 min post injection): 0.85
Tumour/Muscle, mean ([7]; 120 min post injection): 1.87
Metabolites detected in bile samples ([8]; in vivo): 4
Metabolites detected in plasma samples ([8]; in vivo): One metabolite
Free iodide in plasma samples ([8]; in vivo, through time): increasing amount of free iodide
In vivo stability and metabolism ([8]; through time in vivo): slight instability and metabolism
% ID/G Carotid, mean [9, 11]: 2.67 % ID/G
Carotid/Blood, mean [9, 11]: 0.94
Carotid/Heart, mean [9, 11]: 0.48
Carotid/Lung, mean [9, 11]: 0.62
% ID/G Carotid, mean [9, 12]: 2.00 % ID/G
Carotid/Blood, mean [9, 12]: 1.97
Carotid/Heart, mean [9, 12]: 1.03
Carotid/Lung, mean [9, 12]: 1.71
% ID/G Carotid, mean [9, 13]: 0.25 % ID/G
Carotid/Blood, mean [9, 13]: 0.19
Carotid/Heart, mean [9, 13]: 0.21
Carotid/Lung, mean [9, 13]: 0.17
Tumour hotspots on imaging [10]: seen from 5 to 120 minutes post injection
